Legend:
[1] = system: Prostate cancer cell lines; experiment: In vitro cytotoxicity, prostate panel; type: cell-based; settings: Homo sapiens, average of six to nine different cancer cell lines, 48 h, SRB, read-out: Log GI50 (concentration in mol/L causing 50% growth inhibition) (converted)
Experimental: (§1) In vitro evaluation of cytotoxic activity: Compounds were evaluated for in vitro anticancer activity against sixty human tumour cells derived from nine cancer types (colon, prostate, oral, lung, cervix and breast cancer) as shown in (Table 1, 2 and 3) 8b, 8c, 8d, and 8e, were evaluated for in vitro anticancer activity against sixty human tumour cells derived from nine cancer types (leukemia, non-small-cell lung, colon, CNS, melanoma, ovarian, prostate, and breast cancer) as shown in (Table 2 and 3). For the compound, dose response curves for each cell line were measured at a minimum of five concentrations at 10 fold dilutions. A protocol of 48 h continuous drug exposure was used and a sulforhodamine B (SRB) protein assay was used to estimate cell viability or growth. The concentration causing 50% cell growth inhibition (GI50), total cell growth inhibition (TGI 0% growth) and 50% cell death (LC50, −50% growth) compared with the control was calculated. The mean graph midpoint values of log10 TGI and log10 LC50 as well as log10 GI50 for 8a, 8b, 8c, 8d, and 8e, are listed in (Table 2 and 3).
(§2) Each cancer type represents the average of six to nine different cancer cell lines. The compounds 8a, 8b, 8c, 8d, 8e and 8f were evaluated for in vitro anticancer activity against sixty human tumour cells derived from nine cancer types (leukemia, colon, prostate, renal melanoma CNS, lung, cervix and breast cancer) as shown in Table 3. Compounds 8b, 8c, 8d and 8e show promising cytotoxicity against some cancer cell lines (Table 2). Compounds 8b, 8c, 8d and 8e have been evaluated for their in vitro cytotoxicity in selected human cancer cell lines of colon (Colo205), lung (Hop-62), cervix (SiHa), prostate (DU145, PC3), oral (DWD, HT1080), and breast (MCF7, Zr-75-1) origin. A protocol of 48 h continuous drug exposure has been used and an […] has been used to estimate cell viability or growth. The results are expressed as percent of cell growth determined relative to that of untreated control cells. […] In the breast cancer panel, the growth of BT-549, MCF-7 cell lines are 10.3, and 17.6. In the prostate cancer panel, the growth of DU-145, PC-3 cell lines are 11.3, and 19.2. The GI50 values of compound In the CNS cancer panel, the growth of SF-539, SNB-75 cell lines are […]. […] In vitro cytotoxicity of compounds 8a, and 8b in selected cancer cell lines has been illustrated in Table 3. The average GI50 values for each cancer panel of compounds 8b, 8c, 8d and 8e have been illustrated in above Table 2 and 3

Renal cancer cell lines = experiment: In vitro cytotoxicity, renal panel; type: cell-based; settings: Homo sapiens, average of six to nine different cancer cell lines, 48 h, SRB, read-out: Log GI50 (concentration in mol/L causing 50% growth inhibition) (converted)
Experimental: as §1, §2

Colon cancer cell lines = experiment: In vitro cytotoxicity, colon panel; type: cell-based; settings: Homo sapiens, average of six to nine different cancer cell lines, 48 h, SRB, read-out: Log GI50 (concentration in mol/L causing 50% growth inhibition) (converted)
Experimental: as §1, §2

HL-60 (TB) (leukemia) = experiment: In vitro cytotoxicity, HL-60 (TB); type: cell-based; settings: Homo sapiens, leukemia panel
Experimental: (§3) In vitro evaluation of cytotoxic activity: Compounds were evaluated for in vitro anticancer activity against sixty human tumour cells derived from nine cancer types (colon, prostate, oral, lung, cervix and breast cancer) as shown in (Table 1, 2 and 3) 8b, 8c, 8d, and 8e, were evaluated for in vitro anticancer activity against sixty human tumour cells derived from nine cancer types (leukemia, non-small-cell lung, colon, CNS, melanoma, ovarian, prostate, and breast cancer) as shown in (Table 2 and 3). For the compound, dose response curves for each cell line were measured at a minimum of five concentrations at 10 fold dilutions. […]
(§4) Each cancer type represents the average of six to nine different cancer cell lines. The compounds 8a, 8b, 8c, 8d, 8e and 8f were evaluated for in vitro anticancer activity against sixty human tumour cells derived from nine cancer types (leukemia, colon, prostate, renal melanoma CNS, lung, cervix and breast cancer) as shown in Table 3. […] Compounds 8b, 8c, 8d and 8e have been evaluated for their in vitro cytotoxicity in selected human cancer cell lines of colon (Colo205), lung (Hop-62), cervix (SiHa), prostate (DU145, PC3), oral (DWD, HT1080), and breast (MCF7, Zr-75-1) origin. […] The results are expressed as percent of cell growth determined relative to that of untreated control cells. […]

[2] = system: Melanoma cancer cell lines; experiment: In vitro cytotoxicity, melanoma panel; type: cell-based; settings: Homo sapiens, average of six to nine different cancer cell lines, 48 h, SRB, read-out: Log GI50 (concentration in mol/L causing 50% growth inhibition) (converted)
Experimental: as §1, §2

calf thymus (CT) DNA = experiment: Thermal denaturation studies with duplex-form calf thymus DNA; type: binding
Experimental: Compounds were subjected to thermal denaturation studies with duplex-form calf thymus DNA (CT-DNA) using an adaptation of a reported procedure. Working solutions in aqueous buffer (10 mM NaH2PO4/Na2HPO4, 1 mM Na2EDTA, pH 7.00+/−0.01) containing CT-DNA (100 μM in phosphate) and the PBD (20 μM) were prepared by addition of concentrated ANCD solutions in DMSO to obtain a fixed [ANCD]/[DNA] molar ratio of 1:5. The DNA-ANCD solutions were incubated at 37° C. for 0, 18, and 36 h prior to analysis. Samples were monitored at 260 nm using a Beckman DU-7400 spectrophotometer fitted with high performance temperature controller, and heating was applied at 1° C. min^−1 in the 40-90° C. range. DNA helix coil transition temperatures (Tm) were obtained from the maxima in the (dA260)/dT derivative plots. Results are given as the mean+/−standard deviation from three determinations and are corrected for the effects of DMSO co-solvent using a linear correction term. Drug-induced alterations in DNA melting behaviour are given by: ΔTm=Tm (DNA+ANCD)−Tm (DNA alone), where the Tm value for the ANCD-free CT-DNA is 69.0+/−0.01.

[3] = system: EKVX cell line (non-small cell lung cancer); experiment: In vitro cytotoxicity, EKVX; type: cell-based; settings: Homo sapiens, non-small cell lung cancer panel
Experimental: as §3, §4

[4] = system: DU-145 cell line (prostate cancer); experiment: In vitro cytotoxicity, DU-145; type: cell-based; settings: Homo sapiens; DU-145, prostate cancer panel; unit inferred; read-out: growth (GI50)
Experimental: as §3, §4

[5] = system: BT-549 cell line (breast cancer); experiment: In vitro cytotoxicity, BT-549; type: cell-based; settings: Homo sapiens; BT-549, breast cancer panel; unit inferred; read-out: growth (GI50)
Experimental: as §3, §4

CNS cancer cell lines = experiment: In vitro cytotoxicity, CNS panel; type: cell-based; settings: Homo sapiens, average of six to nine different cancer cell lines, 48 h, SRB, read-out: Log GI50 (concentration in mol/L causing 50% growth inhibition) (converted)
Experimental: as §1, §2

[6] = system: Leukemia cancer cell lines; experiment: In vitro cytotoxicity, leukemia panel; type: cell-based; settings: Homo sapiens, average of six to nine different cancer cell lines, 48 h, SRB, read-out: Log GI50 (concentration in mol/L causing 50% growth inhibition) (converted)
Experimental: as §1, §2

Breast cancer cell lines = experiment: In vitro cytotoxicity, breast panel; type: cell-based; settings: Homo sapiens, average of six to nine different cancer cell lines, 48 h, SRB, read-out: Log GI50 (concentration in mol/L causing 50% growth inhibition) (converted)
Experimental: as §1, §2

[7] = system: Nonsmall-cell-lung cancer cell lines; experiment: In vitro cytotoxicity, non-small-cell lung panel; type: cell-based; settings: Homo sapiens, average of six to nine different cancer cell lines, 48 h, SRB, read-out: Log GI50 (concentration in mol/L causing 50% growth inhibition) (converted)
Experimental: as §1, §2

[8] = system: MCF-7 cell line (breast cancer); experiment: In vitro cytotoxicity, MCF-7; type: cell-based; settings: Homo sapiens, MCF7; MCF-7, breast cancer panel; unit inferred; read-out: growth (GI50)
Experimental: as §3, §4

human tumour cell lines = experiment: In vitro anticancer activity against sixty human tumour cell lines (NCI, SRB assay); type: cell-based
Experimental: as §1, §2

[9] = system: NCI-H226 cell line (non-small cell lung cancer); experiment: In vitro cytotoxicity, NCI-H226; type: cell-based; settings: Homo sapiens; NCI-H226, non-small cell lung cancer panel
Experimental: as §3, §4

[10] = system: PC-3 cell line (prostate cancer); experiment: In vitro cytotoxicity, PC-3; type: cell-based; settings: Homo sapiens; PC-3, prostate cancer panel; unit inferred; read-out: growth (GI50)
Experimental: as §3, §4

[11] = system: Ovarian cancer cell lines; experiment: In vitro cytotoxicity, ovarian panel; type: cell-based; settings: Homo sapiens, average of six to nine different cancer cell lines, 48 h, SRB, read-out: Log GI50 (concentration in mol/L causing 50% growth inhibition) (converted)
Experimental: as §1, §2

Q: Which GI50 [1] does the source give for `COc1cc(C(=O)N2CCN(c3ccccn3)CC2)c(N)cc1OCc1ccccc1` [Compound 8b, [2-amino-4-(benzyloxy)-5-methoxyphenyl][4-(2-pyridyl)piperazino]methanone] here?
A: Its GI50 is 16.6 µM.

Q: And the GI50 (Renal cancer cell lines)?
A: Its GI50 is 5.62 µM.

Q: What about the GI50 (Colon cancer cell lines) of the same molecule?
A: Its GI50 is 6.76 µM.

Q: And the GI50 (HL-60 (TB) (leukemia))?
A: The GI50 was 16.5 µM.

Q: And the GI50 [2]?
A: The GI50 was 1.78 µM.

Q: And the “ΔTm (° C.) after incubation at 37° C. for 0 h” value (calf thymus (CT) DNA; [ANCD]/[DNA] molar ratio 1:5, CT-DNA 100 μM, ligand 20 μM, sodium phosphate buffer pH 7.00, 0 h at 37° C.)?
A: The value was 1.5 °C.

Q: And the “ΔTm (° C.) after incubation at 37° C. for 18 h” value (calf thymus (CT) DNA; [ANCD]/[DNA] molar ratio 1:5, CT-DNA 100 μM, ligand 20 μM, sodium phosphate buffer pH 7.00, 18 h at 37° C.)?
A: Its value is 2.1 °C.

Q: And the “ΔTm (° C.) after incubation at 37° C. for 36 h” value (calf thymus (CT) DNA; [ANCD]/[DNA] molar ratio 1:5, CT-DNA 100 μM, ligand 20 μM, sodium phosphate buffer pH 7.00, 36 h at 37° C.)?
A: Its value is 2.6 °C.

Q: And the “Course of ΔTm over incubation at 0 hr, 18 hr and 36 hr” value (calf thymus (CT) DNA; incubation at 37° C., [ANCD]/[DNA] 1:5)?
A: The value was “gradually increased”.

Q: What about the GI50 [3] of the same molecule?
A: Its GI50 is 12.4 µM.

Q: And the GI50 [4]?
A: Its GI50 is 11.3 µM.

Q: And the GI50 [5]?
A: The GI50 was 10.3 µM.

Q: What about the GI50 (CNS cancer cell lines) of the same molecule?
A: Its GI50 is 5.89 µM.

Q: And the GI50 [6]?
A: The GI50 was 5.5 µM.

Q: And the GI50 (Breast cancer cell lines)?
A: Its GI50 is 6.76 µM.

Q: What about the GI50 [7] of the same molecule?
A: Its GI50 is 4.57 µM.

Q: And the GI50 [8]?
A: Its GI50 is 17.6 µM.

Q: What about the “Log10LC50 mean graph midpoint (MG_MID)” value (human tumour cell lines; 50% cell death, 48 h continuous drug exposure, SRB assay) of the same molecule?
A: The value was −4.05.

Q: What about the “Log10GI50 mean graph midpoint (MG_MID)” value (human tumour cell lines; 50% cell growth inhibition, 48 h continuous drug exposure, SRB assay) of the same molecule?
A: Its value is −5.62.

Q: What about the GI50 (human tumour cell lines; Homo sapiens, fifty-five cell lines in nine cancer cell panels) of the same molecule?
A: The GI50 was under 10 µM.

Q: And the antiproliferative activity (human tumour cell lines; against most of the tested cell lines)?
A: The antiproliferative activity was “nanomolar to low micromolar concentrations”.

Q: And the “Log10TGI50 mean graph midpoint (MG_MID)” value (human tumour cell lines; total cell growth inhibition, 48 h continuous drug exposure, SRB assay)?
A: The value was −5.12.

Q: What about the GI50 [9] of the same molecule?
A: The GI50 was 13.6 µM.

Q: What about the GI50 [10] of the same molecule?
A: Its GI50 is 19.2 µM.

Q: What about the GI50 [11] of the same molecule?
A: The GI50 was 5.75 µM.

From patent publication US8309726B2, “Substituted piperazine compounds of formula 8” (Council of Scientific & Industrial Research, priority 2007, dated 2012)
